Assay results published in ChEMBL document CHEMBL4715697, “Synthesis and biological activity of benzamide DNA minor groove binders” (2016).

Assays:
[1] = system: Malme-3M; assay: Growth inhibition of human Malme-3M cells assessed as cell growth at 10 uM incubated for 48 hrs by sulforhodamine B assay relative to control; assay type: functional; settings: read-out: Activity
[2] = system: ACHN; assay: Growth inhibition of human ACHN cells assessed as cell growth at 10 uM incubated for 48 hrs by sulforhodamine B assay relative to control; assay type: functional; settings: read-out: Activity
[3] = system: SF-539; assay: Growth inhibition of human SF-539 cells assessed as cell growth at 10 uM incubated for 48 hrs by sulforhodamine B assay relative to control; assay type: functional; settings: read-out: Activity
[4] = system: MDA-MB-231; assay: Growth inhibition of human MDA-MB-231 cells assessed as cell growth at 10 uM incubated for 48 hrs by sulforhodamine B assay relative to control; assay type: functional; settings: read-out: Activity
[5] = system: Poly(dA-dT)oligonucleotide; assay: Displacement of ethidium bromide from minor groove of poly(dA:dT) dsDNA (unknown origin) by fluorescence spectrophotometry; assay type: nucleic-acid assay
[6] = system: CAKI-1; assay: Growth inhibition of human CAKI-1 cells assessed as cell growth at 10 uM incubated for 48 hrs by sulforhodamine B assay relative to control; assay type: functional; settings: read-out: Activity
[7] = system: SF-268; assay: Growth inhibition of human SF-268 cells assessed as cell growth at 10 uM incubated for 48 hrs by sulforhodamine B assay relative to control; assay type: functional; settings: read-out: Activity
[8] = system: HOP-62; assay: Growth inhibition of human HOP-62 cells assessed as cell growth at 10 uM incubated for 48 hrs by sulforhodamine B assay relative to control; assay type: functional; settings: read-out: Activity
[9] = system: COLO 205; assay: Growth inhibition of human COLO 205 cells assessed as cell growth at 10 uM incubated for 48 hrs by sulforhodamine B assay relative to control; assay type: functional; settings: read-out: Activity
[10] = system: HCC 2998; assay: Growth inhibition of human HCC 2998 cells assessed as cell growth at 10 uM incubated for 48 hrs by sulforhodamine B assay relative to control; assay type: functional; settings: read-out: Activity
[11] = system: SF-295; assay: Growth inhibition of human SF-295 cells assessed as cell growth at 10 uM incubated for 48 hrs by sulforhodamine B assay relative to control; assay type: functional; settings: read-out: Activity
[12] = system: M14; assay: Growth inhibition of human M14 cells assessed as cell growth at 10 uM incubated for 48 hrs by sulforhodamine B assay relative to control; assay type: functional; settings: read-out: Activity
[13] = system: MDA-MB-468; assay: Growth inhibition of human MDA-MB-468 cells assessed as cell growth at 10 uM incubated for 48 hrs by sulforhodamine B assay relative to control; assay type: functional; settings: read-out: Activity
[14] = system: Poly(dA-dT)oligonucleotide; assay: Binding affinity to minor groove of poly(dA:dT) dsDNA (unknown origin) assessed as change in melting temperature by UV-vis spectrophotometry based DNA melting assay; assay type: nucleic-acid assay
[15] = system: DU-145; assay: Growth inhibition of human DU-145 cells assessed as cell growth at 10 uM incubated for 48 hrs by sulforhodamine B assay relative to control; assay type: functional; settings: read-out: Activity
[16] = system: Hs-578T; assay: Growth inhibition of human Hs-578T cells assessed as cell growth at 10 uM incubated for 48 hrs by sulforhodamine B assay relative to control; assay type: functional; settings: read-out: Activity
[17] = system: MCF7; assay: Growth inhibition of human MCF7 cells assessed as cell growth at 10 uM incubated for 48 hrs by sulforhodamine B assay relative to control; assay type: functional; settings: read-out: Activity
[18] = system: LOX IMVI; assay: Growth inhibition of human LOX IMVI cells assessed as cell growth at 10 uM incubated for 48 hrs by sulforhodamine B assay relative to control; assay type: functional; settings: read-out: Activity
[19] = system: CCRF-CEM; assay: Growth inhibition of human CCRF-CEM cells assessed as cell growth at 10 uM incubated for 48 hrs by sulforhodamine B assay relative to control; assay type: functional; settings: read-out: Activity
[20] = system: OVCAR-4; assay: Growth inhibition of human OVCAR-4 cells assessed as cell growth at 10 uM incubated for 48 hrs by sulforhodamine B assay relative to control; assay type: functional; settings: read-out: Activity
[21] = system: A498; assay: Growth inhibition of human A498 cells assessed as cell growth at 10 uM incubated for 48 hrs by sulforhodamine B assay relative to control; assay type: functional; settings: read-out: Activity

SMILES	growth at 10 µM [1] [%]	growth at 10 µM [2] [%]	growth at 10 µM [3] [%]	growth at 10 µM [4] [%]	C50 [5] [mM]	growth at 10 µM [6] [%]	growth at 10 µM [7] [%]	growth at 10 µM [8] [%]	growth at 10 µM [9] [%]	growth at 10 µM [10] [%]	growth at 10 µM [11] [%]	growth at 10 µM [12] [%]	growth at 10 µM [13] [%]	ΔTm [14] [°C]	growth at 10 µM [15] [%]	growth at 10 µM [16] [%]	growth at 10 µM [17] [%]	growth at 10 µM [18] [%]	growth at 10 µM [19] [%]	growth at 10 µM [20] [%]	further results
CCN(CC)CC(=O)Nc1cccc(C(=O)Nc2cc(CO)cc(NC(C)=O)c2)c1	102	105	98.7	126	> 1	112	113	96.9	112	95.8	87	103	95.7	8.7	125	130	88.9	98.7	97.2		
CC(=O)Nc1cccc(NC(=O)c2ccc(C(=O)Nc3cc(CO)cc(NC(C)=O)c3)cc2)c1	107	106	106	110		111	103	106	111	102		101	110		117		93.3	103	93	68.7	
CCN(CC)CC(=O)Nc1ccc(C(=O)Nc2cc(CO)cc(NC(C)=O)c2)cc1	103	108	99.7	112		106	107	101	118	98.6	136	109	99.4	10.2	119		100	106	98.2		
CC(=O)Nc1cc(CO)cc(NC(=O)c2ccc(C(=O)NCCCN3CCOCC3)cc2)c1	106	108	97.3	103		109	109	105	106	100		98.9	96		113		102	101	94.9	67.9	
CC(=O)Nc1cc(CO)cc(NC(=O)c2ccccc2)c1	109	109	111	109		98.9	103	104	115	97.8	108	109	106		105	105	106	99	110	111	growth at 10 µM [21]: 91.6%
CC(=O)Nc1cccc(NC(=O)c2ccc(C(=O)Nc3cc(CCl)cc(NC(C)=O)c3)cc2)c1	99.6	109	109	115		115	115	112	108	103		104	82.2		119	114	102	110	90.8	119	
CC(=O)Nc1cc(CO)cc(NC(=O)c2cccc(NC(=O)CCCN3CCOCC3)c2)c1	112	108	98.9	104		116	107	103	110	101	120	106	92.3		108	114	105	99.8	89.4		
CC(=O)Nc1cc(CO)cc(NC(=O)c2ccc(C(=O)NCCCN(C)C)cc2)c1	100	108	110	105	> 1	109	114	110	114	102		98.6	91.2		115	114	101	97.4	90	103	
CC(=O)Nc1cc(CO)cc(NC(=O)c2ccc(C(=O)Nc3cccc(NC(=O)CCCN(C)C)c3)cc2)c1	17.6	92.8	88	88.6	0.118	101	79.4	77.7	76.3	97.7		81	83.8	30.7	105		25.2	88.1	41.2	34.8	
CC(=O)Nc1cc(CO)cc(NC(=O)c2ccc(NC(=O)CCCN3CCOCC3)cc2)c1	130	109	97.6	102		110	110	101	106	102	150	103	97.8		115	114	102	110	87		
CC(=O)Nc1cc(CO)cc(NC(=O)c2ccc(C(=O)Nc3cc(CO)cc(NC(C)=O)c3)cc2)c1	113	109	99.6	104		117	115	102	109	99.6	96.8	104	101		127	101	97.4	96.8	87.4		
CC(=O)Nc1cc(CCl)cc(NC(=O)c2ccc(C(=O)NCCCN(C)C)cc2)c1	109	105	92.8	139	0.506	102	106	106	111	90	97.6	107	92.9	21.6	112	111	81.5	95.2	103		
CC(=O)Nc1ccc(C(=O)Nc2cc(CO)cc(NC(C)=O)c2)cc1	115	108	107	115			108	106	118	99.4		98.3	97		108	121	95.3	105	82.2		
